# Laboratory results published in patent US11286268B1, “EIF4E-inhibiting compounds and methods” (EFFECTOR THERAPEUTICS, INC., priority 2019, dated 2022).
# Molecular target: recombinant eIF4E (Homo sapiens (Human), UniProt P06730)
# Experiment: Fluorescence polarization competition assay for eIF4E binding potency
# Conditions: inhibition of eIF4E/EDA-m7GDP-ATTO-550 binding; calculated IC50 values, Table 4B; read-out: IC50
# How it was run: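 Protein and fluorescent cap-analog probe (EDA-m7GDP-ATTO-550) were mixed first for 5 min, after which serially diluted compound was added to final 75 nM eIF4E, 20 nM probe, 1% DMSO. Reactions equilibrated 30 min at room temperature before polarization was measured.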
# recombinant eIF4E, sequence (P06730 whole entry): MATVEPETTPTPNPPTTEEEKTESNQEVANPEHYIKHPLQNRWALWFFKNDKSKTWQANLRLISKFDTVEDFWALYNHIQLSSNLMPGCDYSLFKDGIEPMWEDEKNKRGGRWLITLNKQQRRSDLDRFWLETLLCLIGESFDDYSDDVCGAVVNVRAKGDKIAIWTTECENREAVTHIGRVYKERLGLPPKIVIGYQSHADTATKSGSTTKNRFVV
row,Compound,IC50 [nM]
1,Cc1nc2cnc(N3CCC4(CC3)CN(CC(C)(F)F)C4)c(C#N)c2c(=O)n1CC#Cc1ccc(Cl)cc1-c1ccnc2c(C(=O)NS(=O)(=O)c3cccnc3)csc12 [compound 1412],6.71
2,Cc1nc2cnc(N(C)C3(C)CCN(CC(F)F)CC3)c(C#N)c2c(=O)n1CC#Cc1ccc(Cl)cc1-c1ccnc2c(C(=O)O)csc12 [compound 1413],51.7
3,Cc1nc2cnc(C3(C)CCN(C)CC3)c(C#N)c2c(=O)n1CCOc1ccc(Cl)cc1-c1ccnc2c(C(=O)O)csc12 [compound 1415],16.8
4,Cc1cc(-c2cc(Cl)ccc2OCCn2c(C)nc3cc(C(F)(F)F)c(N4CCN(C)CC4)c(C#N)c3c2=O)c2sc(C)c(C(=O)O)c2n1 [compound 1416],12.7
5,Cc1cc(-c2cc(Cl)ccc2OCCn2c(C)nc3cc(C(F)(F)F)c(C4=CCN(C)CC4)c(C#N)c3c2=O)c2sc(C)c(C(=O)O)c2n1 [compound 1417],24.9
6,Cc1cc(-c2cc(Cl)ccc2OCCn2c(C)nc3c(C4COC4)ncc(C#N)c3c2=O)c2scc(C(=O)O)c2n1 [compound 1419],6.76
7,Cc1cc(-c2cc(Cl)ccc2OCCn2c(C)nc3cc(C(F)(F)F)c(N4CC5(CN(C)C5)C4)c(C#N)c3c2=O)c2sc(C)c(C(=O)O)c2n1 [compound 1420],6.33
8,Cc1cc(-c2cc(Cl)ccc2OCCn2c(C)nc3cnc(C4(F)CN(C)C4)c(C#N)c3c2=O)c2scc(C(=O)O)c2n1 [compound 1421],36.6
9,Cc1nc2cnc(N3CCN(C(C)CF)CC3)c(C#N)c2c(=O)n1CCOc1ccc(Cl)cc1-c1ccnc2c(C(=O)O)csc12 (centres unmarked) [compound 1424],29.2
10,Cc1nc2cnc(N3CCN(C4(CCF)CC4)CC3)c(C#N)c2c(=O)n1CCOc1ccc(Cl)cc1-c1ccnc2c(C(=O)O)csc12 [compound 1425],13
11,Cc1nc2cnc(N(C)C3CCN(C(C)(C)CF)CC3)c(C#N)c2c(=O)n1CCOc1ccc(Cl)cc1-c1ccnc2c(C(=O)O)csc12 [compound 1429],17.8
12,Cc1nc2cnc(N(C)C3CCN(C4(C(F)F)CC4)CC3)c(C#N)c2c(=O)n1CCOc1ccc(Cl)cc1-c1ccnc2c(C(=O)O)csc12 [compound 1430],22.8
13,Cc1nc2cnc(N(C)C3CCN(C(C)(C)C(F)F)CC3)c(C#N)c2c(=O)n1CCOc1ccc(Cl)cc1-c1ccnc2c(C(=O)O)csc12 [compound 1431],19.8
14,CCN(c1ncc2nc(C)n(CCOc3ccc(Cl)cc3-c3ccnc4c(C(=O)O)csc34)c(=O)c2c1C#N)C1CCN(CC(F)F)CC1 [compound 1433],27.4
15,Cc1nc2cnc(N(C)C3CCN(CC(F)(F)Cl)CC3)c(C#N)c2c(=O)n1CCOc1ccc(Cl)cc1-c1ccnc2c(C(=O)O)csc12 [compound 1441],29.8
16,Cc1nc2cnc(N3CCN(C)C(CF)C3)c(C#N)c2c(=O)n1CC#Cc1ccc(Cl)cc1-c1ccnc2c(C(=O)O)csc12 (centres unmarked) [compound 1459],20.7
17,Cc1nc2cnc(N3CCN(C)C(COC(F)(F)F)C3)c(C#N)c2c(=O)n1CC#Cc1ccc(Cl)cc1-c1ccnc2c(C(=O)O)csc12 (centres unmarked) [compound 1460],7.99
18,Cc1nc2cnc(C3=CCN(C4CC4)CC3)c(C#N)c2c(=O)n1CC#Cc1ccc(Cl)cc1-c1ccnc2c(C(=O)O)csc12 [compound 1461],13.8
19,Cc1nc2cnc(C3=CCN(CCF)CC3)c(C#N)c2c(=O)n1CC#Cc1ccc(Cl)cc1-c1ccnc2c(C(=O)O)csc12 [compound 1462],20.1
20,Cc1nc2cnc(C3=CCN(CC(F)F)CC3)c(C#N)c2c(=O)n1CC#Cc1ccc(Cl)cc1-c1ccnc2c(C(=O)O)csc12 [compound 1463],22.9
21,Cc1nc2cnc(N3CCN(CCOC(F)F)CC3)c(C#N)c2c(=O)n1CC#Cc1ccc(Cl)cc1-c1ccnc2c(C(=O)O)csc12 [compound 1464],13.4
22,COCC1(N2CCN(c3ncc4nc(C)n(CC#Cc5ccc(Cl)cc5-c5ccnc6c(C(=O)O)csc56)c(=O)c4c3C#N)CC2)CC1 [compound 1465],23.6
23,CCC(F)(CC)CN1CCN(c2ncc3nc(C)n(CCOc4ccc(Cl)cc4-c4ccnc5c(C(=O)O)csc45)c(=O)c3c2C#N)CC1 [compound 1469],23
24,Cc1nc2cnc(N3CCN(CC(C)(C)C(F)(F)F)CC3)c(C#N)c2c(=O)n1CCOc1ccc(Cl)cc1-c1ccnc2c(C(=O)O)csc12 [compound 1472],28.9
25,Cc1nc2cnc(N3CCN(C4C(C)(C)C4(C)C)CC3)c(C#N)c2c(=O)n1CCOc1ccc(Cl)cc1-c1ccnc2c(C(=O)O)csc12 [compound 1473],16.9

# Further compounds by falling IC50, results first:
row,IC50 [nM],Compound
1,40.8,Cc1nc2cnc(N3CCN(C4CC4)C(C(F)(F)F)C3)c(C#N)c2c(=O)n1CCOc1ccc(Cl)cc1-c1ccnc2c(C(=O)O)csc12 (centres unmarked) [compound 1438]
2,35,Cc1nc2cnc(C#CCN(C)CC(F)(F)F)c(C#N)c2c(=O)n1CC#Cc1ccc(Cl)cc1-c1ccnc2c(C(=O)O)csc12 [compound 1468]
3,30.8,Cc1nc2cnc(N3CCN(CC4(F)CC4)CC3)c(C#N)c2c(=O)n1CCOc1ccc(Cl)cc1-c1ccnc2c(C(=O)O)csc12 [compound 1470]
4,29.5,Cc1nc2cnc(N3CC4(C3)CN(C3CC3(C)C)C4)c(C#N)c2c(=O)n1CCOc1ccc(Cl)cc1-c1ccnc2c(C(=O)O)csc12 (centres unmarked) [compound 1436]
5,21.2,Cc1nc2cnc(N(C)C3CCN(C(CF)CF)CC3)c(C#N)c2c(=O)n1CCOc1ccc(Cl)cc1-c1ccnc2c(C(=O)O)csc12 [compound 1432]
6,19.1,Cc1nc2cnc(N3CCN(CCCC(F)(F)F)CC3)c(C#N)c2c(=O)n1CC#Cc1ccc(Cl)cc1-c1ccnc2c(C(=O)O)csc12 [compound 1458]
7,18,Cc1nc2cnc(N3CCN(CCCF)CC3)c(C#N)c2c(=O)n1CC#Cc1ccc(Cl)cc1-c1ccnc2c(C(=O)O)csc12 [compound 1457]
8,17.9,Cc1nc2cnc(N3CCN(C(C)C(F)F)CC3)c(C#N)c2c(=O)n1CC#Cc1ccc(Cl)cc1-c1ccnc2c(C(=O)O)csc12 (centres unmarked) [compound 1466]
9,17.5,Cc1nc2cnc(N3CCC4(CC3)CN(CC(C)(F)F)C4)c(C#N)c2c(=O)n1CC#Cc1ccc(Cl)cc1-c1ccnc2c(C(=O)NS(=O)(=O)C3COC3)csc12 [compound 1411]
10,15.3,Cc1nc2cnc(N3CCC(C)(N(C)CC(F)F)CC3)c(C#N)c2c(=O)n1CC#Cc1ccc(Cl)cc1-c1ccnc2c(C(=O)O)csc12 [compound 1414]
11,14.3,Cc1nc2cnc(C3CCC(N(C)CC(F)(F)F)C3)c(C#N)c2c(=O)n1CCOc1ccc(Cl)cc1-c1ccnc2c(C(=O)O)csc12 (centres unmarked) [compound 1427]
12,14.2,Cc1nc2cnc(N3CCN(CC4(C(F)(F)F)CC4)CC3)c(C#N)c2c(=O)n1CCOc1ccc(Cl)cc1-c1ccnc2c(C(=O)O)csc12 [compound 1471]
13,12.2,Cc1nc2cnc(N(C)C3CCN(C4(CF)CC4)CC3)c(C#N)c2c(=O)n1CCOc1ccc(Cl)cc1-c1ccnc2c(C(=O)O)csc12 [compound 1428]
14,11,Cc1nc2cnc(N3CCC(N4CC(F)(F)C4)CC3)c(C#N)c2c(=O)n1CC#Cc1ccc(Cl)cc1-c1ccnc2c(C(=O)O)csc12 [compound 1467]
15,10.8,Cc1nc2cnc(N3CCC4(CC3)CN(CC(F)F)C4)c(C#N)c2c(=O)n1CC#Cc1ccc(Cl)cc1-c1ccnc2c(C(=O)NS(=O)(=O)c3cccnc3)csc12 [compound 1409]
16,9.1,Cc1cc(-c2cc(Cl)ccc2OCCn2c(C)nc3cnc(N4CCN(C)CC4)c(C#N)c3c2=O)c2sc(C)c(C(=O)O)c2n1 [compound 1418]
